Calls of active or inactive are those of the source. The calls are words filed in the database; no cut-off is given here.
Tests used:
[1] = target: T1, 5-hydroxytryptamine receptor 1B (Homo sapiens, UniProt P28222); settings: Compound concentration 10.0 uM
D(3) dopamine receptor = D(3) dopamine receptor (Homo sapiens, UniProt P35462); assay: GPCRScan assay: inhibition of D3; design: radioligand conc. used [nm] 0.5 – 1.8, parental cells HEKT
[2] = target: Prostaglandin G/H synthase 2 (Homo sapiens, UniProt P35354); assay: (§1) Cross screening panel
[3] = target: Muscarinic acetylcholine receptor M1 (Homo sapiens, UniProt P11229); assay: as §1
[4] = target: Muscarinic acetylcholine receptor M2 (Homo sapiens, UniProt P08172); assay: as §1
[5] = target: Alpha-2C adrenergic receptor (Homo sapiens, UniProt P18825); assay: as §1
[6] = target: Phosphatidylinositol 4,5-bisphosphate 3-kinase catalytic subunit gamma isoform (Homo sapiens, UniProt P48736); assay: as §1
Cannabinoid receptor 2 = Cannabinoid receptor 2 (Homo sapiens, UniProt P34972); assay: as §1
[7] = target: Voltage-dependent L-type calcium channel subunit alpha-1C (Homo sapiens, UniProt Q13936); assay: as §1
[8] = target: 5-hydroxytryptamine receptor 2C (Homo sapiens, UniProt P28335); assay: as §1
[9] = target: Sodium-dependent serotonin transporter (Homo sapiens, UniProt P31645); assay: as §1
[10] = target: Amine oxidase [flavin-containing] B (Homo sapiens, UniProt P27338); assay: as §1
[11] = target: Potassium voltage-gated channel subfamily A member 5 (Homo sapiens, UniProt P22460); assay: as §1
Acetylcholinesterase = Acetylcholinesterase (Homo sapiens, UniProt P22303); assay: as §1
Histamine H1 receptor [12] = target: T2, Histamine H1 receptor (Homo sapiens, UniProt P35367); assay: as §1
[13] = target: Sodium channel protein type 5 subunit alpha (Homo sapiens, UniProt Q14524); assay: as §1
D(1A) dopamine receptor = D(1A) dopamine receptor (Homo sapiens, UniProt P21728); assay: as §1
[14] = target: 3',5'-cyclic-AMP phosphodiesterase 4B (Homo sapiens, UniProt Q07343); assay: as §1
Cytochrome P450 3A4 [15] = target: T3, Cytochrome P450 3A4 (Homo sapiens, UniProt P08684); assay: as §1
[16] = target: cGMP-inhibited 3',5'-cyclic phosphodiesterase 3A (Homo sapiens, UniProt Q14432); assay: as §1
[17] = target: Voltage-gated inwardly rectifying potassium channel KCNH2 (Homo sapiens, UniProt Q12809); assay: as §1
[18] = target: 5-hydroxytryptamine receptor 2A (Homo sapiens, UniProt P28223); assay: as §1
[19] = target: Sodium-dependent noradrenaline transporter (Homo sapiens, UniProt P23975); assay: as §1
Substance-P receptor = Substance-P receptor (Homo sapiens, UniProt P25103); assay: as §1
[20] = target: Solute carrier organic anion transporter family member 1B1 (Homo sapiens, UniProt Q9Y6L6); assay: as §1
[21] = target: Acetylcholine receptor subunit alpha (Homo sapiens, UniProt P02708); assay: as §1
[22] = target: T4, 5-hydroxytryptamine receptor 3A (Homo sapiens, UniProt P46098); assay: as §1
T4 sequence (P46098 whole entry): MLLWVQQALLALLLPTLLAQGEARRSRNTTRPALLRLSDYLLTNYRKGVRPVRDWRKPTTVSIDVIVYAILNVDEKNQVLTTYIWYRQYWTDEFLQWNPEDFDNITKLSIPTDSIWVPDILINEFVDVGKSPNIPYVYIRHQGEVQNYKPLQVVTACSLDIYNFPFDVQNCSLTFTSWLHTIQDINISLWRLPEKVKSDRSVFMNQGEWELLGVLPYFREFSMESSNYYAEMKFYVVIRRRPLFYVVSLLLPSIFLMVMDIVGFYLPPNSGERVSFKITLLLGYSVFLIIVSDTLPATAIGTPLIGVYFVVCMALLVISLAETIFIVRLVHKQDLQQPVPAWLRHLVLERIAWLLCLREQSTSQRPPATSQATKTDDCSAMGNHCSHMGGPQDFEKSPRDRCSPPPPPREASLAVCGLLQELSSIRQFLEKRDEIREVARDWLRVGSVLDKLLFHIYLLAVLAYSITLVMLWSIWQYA

[23] = target: Nuclear receptor subfamily 1 group I member 2 (Homo sapiens, UniProt O75469); assay: as §1
[24] = target: Tyrosine-protein kinase Lck (Homo sapiens, UniProt P06239); assay: as §1
Vasopressin V1a receptor = Vasopressin V1a receptor (Homo sapiens, UniProt P37288); assay: as §1
[25] = target: T1, 5-hydroxytryptamine receptor 1B; assay: as §1
Mu-type opioid receptor = Mu-type opioid receptor (Homo sapiens, UniProt P35372); assay: as §1
Adenosine receptor A2a = Adenosine receptor A2a (Homo sapiens, UniProt P29274); assay: as §1
[26] = target: Kappa-type opioid receptor (Homo sapiens, UniProt P41145); assay: as §1
[27] = target: Glutamate receptor ionotropic, NMDA 2B (Homo sapiens, UniProt Q13224); assay: as §1
[28] = target: Beta-2 adrenergic receptor (Homo sapiens, UniProt P07550); assay: as §1
D(2) dopamine receptor = D(2) dopamine receptor (Homo sapiens, UniProt P14416); assay: as §1
Aurora kinase B = Aurora kinase B (Homo sapiens, UniProt Q96GD4); assay: as §1
[29] = target: Alpha-1B adrenergic receptor (Homo sapiens, UniProt P35368); assay: as §1
[30] = target: Muscarinic acetylcholine receptor M3 (Homo sapiens) (UniProt P20309); settings: Compound concentration 10.0 uM
[31] = target: T5, Bromodomain-containing protein 3 (Homo sapiens, UniProt Q15059); assay: TR-FRET assay (BRD3 BD1)
[32] = target: T5, Bromodomain-containing protein 3; assay: BRD3(2) DiscoverX BROMOscan
[33] = target: Muscarinic acetylcholine receptor M4 (Homo sapiens) (UniProt P08173); settings: Compound concentration 10.0 uM
Histamine H1 receptor [34] = target: T2, Histamine H1 receptor; settings: Compound concentration 10.0 uM
[35] = target: 5-hydroxytryptamine receptor 1D (Homo sapiens) (UniProt P28221); settings: Compound concentration 10.0 uM
[36] = target: Histone acetyltransferase p300 (Homo sapiens, UniProt Q09472); assay: EP300 DiscoverX BROMOscan
[37] = target: Bromodomain-containing protein 2 (Homo sapiens, UniProt P25440); assay: BET mutant TR-FRET assay (BRD2 BD1)
[38] = target: Bromodomain-containing protein 7 (Homo sapiens, UniProt Q9NPI1); assay: BRD7 DiscoverX BROMOscan
Cytochrome P450 3A4 [39] = target: T3, Cytochrome P450 3A4; assay: as §1; remark: listed apart in the source
CREB-binding protein = CREB-binding protein (Homo sapiens, UniProt Q92793); assay: CREBBP DiscoverX BROMOscan
[40] = target: Bromodomain adjacent to zinc finger domain protein 2B (Homo sapiens, UniProt Q9UIF8); assay: BAZ2B DiscoverX BROMOscan

T1 sequence (P28222 whole entry): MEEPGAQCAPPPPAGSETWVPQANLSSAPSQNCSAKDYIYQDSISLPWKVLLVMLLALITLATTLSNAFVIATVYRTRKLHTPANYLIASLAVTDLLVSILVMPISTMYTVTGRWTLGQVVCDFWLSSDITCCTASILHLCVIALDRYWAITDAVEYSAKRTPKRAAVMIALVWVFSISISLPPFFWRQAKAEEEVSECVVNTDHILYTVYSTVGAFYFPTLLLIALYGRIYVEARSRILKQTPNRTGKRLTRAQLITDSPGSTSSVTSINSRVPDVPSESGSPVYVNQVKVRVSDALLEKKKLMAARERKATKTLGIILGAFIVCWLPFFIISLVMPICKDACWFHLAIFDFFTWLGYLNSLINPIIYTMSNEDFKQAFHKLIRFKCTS
T2 sequence (P35367 whole entry): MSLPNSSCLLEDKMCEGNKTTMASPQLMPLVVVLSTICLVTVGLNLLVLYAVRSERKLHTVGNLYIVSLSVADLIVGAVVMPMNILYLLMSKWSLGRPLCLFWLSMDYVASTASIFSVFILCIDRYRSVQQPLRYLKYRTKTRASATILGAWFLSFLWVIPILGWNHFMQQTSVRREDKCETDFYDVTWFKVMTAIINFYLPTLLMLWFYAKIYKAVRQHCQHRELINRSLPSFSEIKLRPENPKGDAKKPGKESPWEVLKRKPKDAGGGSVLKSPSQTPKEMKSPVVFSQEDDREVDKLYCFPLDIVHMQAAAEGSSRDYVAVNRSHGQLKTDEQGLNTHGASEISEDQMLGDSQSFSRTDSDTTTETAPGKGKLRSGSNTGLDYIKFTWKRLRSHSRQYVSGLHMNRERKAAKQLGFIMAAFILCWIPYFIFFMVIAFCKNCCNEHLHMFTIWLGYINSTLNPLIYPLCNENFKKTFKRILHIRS
Sequence of Kappa-type opioid receptor (P41145 whole entry): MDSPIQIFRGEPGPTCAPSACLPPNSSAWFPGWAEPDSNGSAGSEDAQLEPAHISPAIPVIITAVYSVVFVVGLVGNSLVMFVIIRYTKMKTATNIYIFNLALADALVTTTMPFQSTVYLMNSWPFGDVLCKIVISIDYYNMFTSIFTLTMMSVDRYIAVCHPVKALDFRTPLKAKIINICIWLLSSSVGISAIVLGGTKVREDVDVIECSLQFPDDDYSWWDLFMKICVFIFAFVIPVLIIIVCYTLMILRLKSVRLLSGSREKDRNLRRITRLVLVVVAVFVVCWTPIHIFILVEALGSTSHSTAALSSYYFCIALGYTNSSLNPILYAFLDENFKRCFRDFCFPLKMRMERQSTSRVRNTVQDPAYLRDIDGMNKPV
Sequence of 5-hydroxytryptamine receptor 2A (P28223 whole entry): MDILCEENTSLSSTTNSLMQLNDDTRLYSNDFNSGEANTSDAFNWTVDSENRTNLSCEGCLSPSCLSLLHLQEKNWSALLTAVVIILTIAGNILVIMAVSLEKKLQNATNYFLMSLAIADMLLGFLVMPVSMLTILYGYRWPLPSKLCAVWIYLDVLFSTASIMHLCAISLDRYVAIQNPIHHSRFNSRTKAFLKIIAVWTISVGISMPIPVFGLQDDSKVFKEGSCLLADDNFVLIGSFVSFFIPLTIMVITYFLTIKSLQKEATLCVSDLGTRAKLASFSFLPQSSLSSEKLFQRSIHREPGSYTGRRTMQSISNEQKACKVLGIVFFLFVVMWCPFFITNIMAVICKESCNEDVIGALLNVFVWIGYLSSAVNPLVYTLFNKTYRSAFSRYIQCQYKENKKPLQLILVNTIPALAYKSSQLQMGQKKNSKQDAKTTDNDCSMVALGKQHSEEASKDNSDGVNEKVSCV
Sequence of Muscarinic acetylcholine receptor M1 (P11229 whole entry): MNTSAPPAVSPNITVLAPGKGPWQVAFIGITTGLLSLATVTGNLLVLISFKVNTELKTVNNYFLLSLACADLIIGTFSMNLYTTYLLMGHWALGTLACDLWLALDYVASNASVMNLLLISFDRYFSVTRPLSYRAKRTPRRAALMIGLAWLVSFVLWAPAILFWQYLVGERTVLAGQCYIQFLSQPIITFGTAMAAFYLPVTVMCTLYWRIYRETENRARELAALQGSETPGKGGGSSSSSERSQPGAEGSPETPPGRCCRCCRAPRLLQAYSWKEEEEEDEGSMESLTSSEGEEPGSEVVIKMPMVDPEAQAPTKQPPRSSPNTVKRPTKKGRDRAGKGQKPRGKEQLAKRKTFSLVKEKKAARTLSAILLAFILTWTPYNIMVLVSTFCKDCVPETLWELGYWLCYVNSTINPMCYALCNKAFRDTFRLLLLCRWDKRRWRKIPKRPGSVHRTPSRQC
Sequence of Beta-2 adrenergic receptor (P07550 whole entry): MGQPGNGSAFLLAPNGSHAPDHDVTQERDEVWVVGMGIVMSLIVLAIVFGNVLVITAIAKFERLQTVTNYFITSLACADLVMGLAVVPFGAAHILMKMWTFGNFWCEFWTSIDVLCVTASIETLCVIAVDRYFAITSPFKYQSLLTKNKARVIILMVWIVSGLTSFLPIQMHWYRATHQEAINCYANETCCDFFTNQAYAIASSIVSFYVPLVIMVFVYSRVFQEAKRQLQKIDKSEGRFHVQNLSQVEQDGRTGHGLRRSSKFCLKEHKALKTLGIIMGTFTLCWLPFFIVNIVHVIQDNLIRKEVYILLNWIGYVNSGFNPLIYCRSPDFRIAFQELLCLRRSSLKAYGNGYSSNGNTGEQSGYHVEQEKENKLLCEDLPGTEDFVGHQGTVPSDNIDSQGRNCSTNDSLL
Sequence of Acetylcholine receptor subunit alpha (P02708 whole entry): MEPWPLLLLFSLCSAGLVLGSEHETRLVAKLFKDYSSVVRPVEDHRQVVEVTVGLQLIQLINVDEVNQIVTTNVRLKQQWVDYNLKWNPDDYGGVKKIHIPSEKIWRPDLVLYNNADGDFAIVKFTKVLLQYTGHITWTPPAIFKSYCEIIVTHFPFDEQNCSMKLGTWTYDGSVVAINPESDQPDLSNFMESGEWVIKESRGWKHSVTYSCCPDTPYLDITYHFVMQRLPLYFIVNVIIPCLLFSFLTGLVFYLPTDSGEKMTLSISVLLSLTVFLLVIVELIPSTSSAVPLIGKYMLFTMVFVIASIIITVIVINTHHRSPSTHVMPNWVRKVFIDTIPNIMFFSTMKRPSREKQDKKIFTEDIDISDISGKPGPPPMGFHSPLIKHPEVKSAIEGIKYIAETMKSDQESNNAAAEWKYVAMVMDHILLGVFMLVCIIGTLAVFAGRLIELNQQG
Sequence of Muscarinic acetylcholine receptor M2 (P08172 whole entry): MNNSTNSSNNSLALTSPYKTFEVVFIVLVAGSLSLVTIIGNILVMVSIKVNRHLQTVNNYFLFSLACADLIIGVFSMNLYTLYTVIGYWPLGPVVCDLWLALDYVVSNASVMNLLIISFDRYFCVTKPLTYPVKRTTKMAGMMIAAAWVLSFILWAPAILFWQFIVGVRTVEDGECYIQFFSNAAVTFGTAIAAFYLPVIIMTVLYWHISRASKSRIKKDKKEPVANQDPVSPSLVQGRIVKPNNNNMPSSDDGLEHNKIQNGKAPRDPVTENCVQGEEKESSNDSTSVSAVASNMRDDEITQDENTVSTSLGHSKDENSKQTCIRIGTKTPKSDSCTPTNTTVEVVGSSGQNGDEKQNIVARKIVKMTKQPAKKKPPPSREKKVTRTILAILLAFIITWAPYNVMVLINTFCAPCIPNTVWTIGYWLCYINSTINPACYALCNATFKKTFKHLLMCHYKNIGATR
Sequence of D(3) dopamine receptor (P35462 whole entry): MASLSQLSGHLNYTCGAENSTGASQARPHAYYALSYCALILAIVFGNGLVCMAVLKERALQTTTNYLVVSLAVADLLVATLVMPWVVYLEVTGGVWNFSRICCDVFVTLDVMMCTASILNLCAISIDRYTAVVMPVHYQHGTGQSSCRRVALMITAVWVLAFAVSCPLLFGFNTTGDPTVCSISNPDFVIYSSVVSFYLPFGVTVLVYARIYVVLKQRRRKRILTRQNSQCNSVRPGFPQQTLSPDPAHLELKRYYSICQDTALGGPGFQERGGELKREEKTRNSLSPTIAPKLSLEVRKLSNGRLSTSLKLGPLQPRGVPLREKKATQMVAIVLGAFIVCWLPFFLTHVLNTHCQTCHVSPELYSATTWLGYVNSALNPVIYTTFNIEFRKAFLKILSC
Sequence of D(2) dopamine receptor (P14416 whole entry): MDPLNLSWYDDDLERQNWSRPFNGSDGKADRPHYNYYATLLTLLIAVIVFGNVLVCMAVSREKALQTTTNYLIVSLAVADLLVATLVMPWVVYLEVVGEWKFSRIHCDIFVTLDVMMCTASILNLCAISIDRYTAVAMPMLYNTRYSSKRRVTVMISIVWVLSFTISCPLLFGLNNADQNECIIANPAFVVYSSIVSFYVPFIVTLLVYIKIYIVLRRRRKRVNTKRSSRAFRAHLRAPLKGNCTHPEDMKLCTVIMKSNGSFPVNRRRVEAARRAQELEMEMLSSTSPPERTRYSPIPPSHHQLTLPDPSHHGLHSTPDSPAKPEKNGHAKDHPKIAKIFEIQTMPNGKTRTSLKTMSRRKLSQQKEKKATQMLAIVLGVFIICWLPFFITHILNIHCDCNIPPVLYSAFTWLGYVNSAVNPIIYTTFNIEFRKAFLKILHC
Sequence of 5-hydroxytryptamine receptor 2C (P28335 whole entry): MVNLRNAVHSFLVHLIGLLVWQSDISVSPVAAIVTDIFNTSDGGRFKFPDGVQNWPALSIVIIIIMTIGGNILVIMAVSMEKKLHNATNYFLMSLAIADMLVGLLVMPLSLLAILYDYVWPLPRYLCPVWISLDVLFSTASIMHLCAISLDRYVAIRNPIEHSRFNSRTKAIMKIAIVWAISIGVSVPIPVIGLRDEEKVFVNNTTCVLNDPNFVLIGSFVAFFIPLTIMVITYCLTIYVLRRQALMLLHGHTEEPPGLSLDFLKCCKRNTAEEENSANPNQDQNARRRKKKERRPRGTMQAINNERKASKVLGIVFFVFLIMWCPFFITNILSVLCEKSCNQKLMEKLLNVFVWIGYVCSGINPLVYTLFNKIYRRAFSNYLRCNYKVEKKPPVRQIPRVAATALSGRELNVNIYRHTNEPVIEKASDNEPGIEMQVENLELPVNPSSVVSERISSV

COCc1nc2cnc3cc(-c4c(C)noc4C)c(OC[C@H]4CCNC4)cc3c2n1[C@H](C)c1ccccc1 [GSK778] gave an inhibition [1] of 8.66%, a Ki (D(3) dopamine receptor; read-out: Ki) of 0.486 µM and a Ki (D(3) dopamine receptor; read-out: pKi (converted)) of 0.407 µM. For the same molecule, the IC50 [2] was > 100 µM, the EC50 [3] was > 50.1 µM and the IC50 [3] was > 50.1 µM. For the same molecule, the EC50 [4] was > 50.1 µM, the IC50 [4] was 10 µM and the EC50 [5] was > 100 µM. For the same molecule, the IC50 [6] was > 31.6 µM, the EC50 (Cannabinoid receptor 2) was > 100 µM and the IC50 [7] was > 100 µM. For the same molecule, the EC50 [8] was > 25.1 µM, the IC50 [8] was > 25.1 µM and the IC50 [9] was 39.8 µM. For the same molecule, the IC50 [10] was 79.4 µM, the IC50 [11] was > 50.1 µM and the IC50 (Acetylcholinesterase) was 63.1 µM. For the same molecule, the IC50 (Histamine H1 receptor [12]) was > 25.1 µM, the IC50 [13] was 50.1 µM and the IC50 (D(1A) dopamine receptor) was > 100 µM. The IC50 [14] was 39.8 µM, the IC50 (Cytochrome P450 3A4 [15]) was 6.31 µM and the IC50 [16] was > 100 µM. For the same molecule, the IC50 [17] was 39.8 µM, the EC50 [18] was > 25.1 µM and the IC50 [18] was > 25.1 µM. For the same molecule, the IC50 [19] was 20 µM, the IC50 (Substance-P receptor) was > 25.1 µM and the IC50 [20] was 39.8 µM. For the same molecule, the EC50 [21] was > 50.1 µM, the IC50 [21] was 1 µM and the EC50 [22] was > 50.1 µM. The IC50 [22] was > 50.1 µM, the EC50 [23] was > 50.1 µM and the IC50 [24] was > 31.6 µM. For the same molecule, the IC50 (Vasopressin V1a receptor) was > 50.1 µM, the EC50 [25] was > 100 µM and the IC50 [25] was > 100 µM. For the same molecule, the EC50 (Mu-type opioid receptor) was > 100 µM, the EC50 (Adenosine receptor A2a) was > 100 µM and the EC50 [26] was > 100 µM. For the same molecule, the IC50 [26] was > 100 µM, the IC50 [27] was > 50.1 µM and the EC50 [28] was > 100 µM. The IC50 [28] was > 100 µM, the EC50 (D(2) dopamine receptor) was > 100 µM and the IC50 (D(2) dopamine receptor) was 3.16 µM. For the same molecule, the IC50 (Aurora kinase B) was > 31.6 µM, the IC50 [29] was > 25.1 µM and the inhibition [30] was -3.35%. The IC50 [31] was 0.041 µM (active), the Kd [32] was 0.31 µM and the inhibition [33] was 15.7%. It also gave an inhibition (Histamine H1 receptor [34]) of 0.33%, an inhibition [35] of 14.8% and a Kd [36] of 5.7 µM. The pIC50 [37] was 7.1, the Kd [38] was 30 µM and the IC50 (Cytochrome P450 3A4 [39]) was 1 µM. It also gave a Kd (CREB-binding protein) of 3.8 µM and a Kd [40] of 30 µM.

From ChEMBL document CHEMBL4630907 (2021)
